US20140024638A1, “TREATMENT OF COGNITIVE DYSFUNCTION IN SCHIZOPHRENIA” (TARGACEPT, INC., priority 2011, published 2014)

How the values were obtained:
[1] = test system: patients with schizophrenia; test: CogState Schizophrenia Battery Composite score, Phase 2 trial; format: in vivo, human; conditions: for CogState Composite score: Mean (SE): tobacco users meeting data integrity criteria; for CogState Composite score: Mean (SEM): total population, subjects meeting data integrity criteria
Description: As provided in the above-referenced brochure, CogState is a provider of cognitive testing products and services that predominantly caters to the global pharmaceutical industry. The Schizophrenia Cognitive Test Battery covers all domains identified by MATRICS initiative; requires around 35 minutes for administration; is sensitive to the effects of novel compounds and licensed medication; is sensitive to the effects of medication in groups or individual patients; and the outcome measures are related to functional status.
(§1) The double blind, placebo controlled Phase 2 trial was conducted at 7 sites in the United States and 12 sites in India. […] Of the randomized patients, approximately 69% were male and approximately 46% were users of tobacco products. […] The primary efficacy outcome measure was GMLT, and the trial included a number of other scales as secondary efficacy outcome measures.

[2] = in vivo; cited from earlier work
[3] = water solubility (salt screening); format: physicochemical
[4] = test system: patients with schizophrenia; test: Groton Maze Learning Task (GMLT) of the CogState Schizophrenia Battery, Phase 2 trial; format: in vivo, human; conditions: for GML (Total Error) LOG: Adjusted Mean / GML (Total Error) LOG: Mean Difference ± SE between TC-5619 and Placebo (Placebo-TC5619): All Patients; for GMLT primary efficacy outcome measure: result against protocol criteria: positive outcome = superiority over placebo, one-sided p-value <0.10 after adjusting for 3 comparisons (Weeks 4, 8, 12), adjusted p-value=0.054, unadjusted p 0.018 at 4 weeks, 0.041 at 12 weeks; for GMLT log (10) transformed: Mean (SE): tobacco users
Description: as §1
The GMLT is a computerized test designed to assess executive function (the ability to organize cognitive processes, including the ability to plan, prioritize, stop and start activities, shift from one activity to another activity and to monitor one's own behavior). Impaired executive function is thought to be an important aspect of cognitive dysfunction in schizophrenia.

healthy volunteers = test: phase 1 trials in healthy volunteers; format: in vivo, human
[5] = in vivo; cited from earlier work; remark: listed apart in the source
[6] = test system: patients with schizophrenia; test: CogState Detection task (psychomotor speed), Phase 2 trial; format: in vivo, human; conditions: for CogState Detection: Mean (SE): tobacco users meeting data integrity criteria; for CogState Detection: Mean (SEM): total population, subjects meeting data integrity criteria
Description: as §1

[7] = test system: patients with schizophrenia; test: CogState 1-Back task (working memory), Phase 2 trial; format: in vivo, human; conditions: for CogState 1-Back: Mean (SE): tobacco users meeting data integrity criteria; for CogState 1-Back: Mean (SEM): total population, subjects meeting data integrity criteria
Description: as §1

[8] = test system: patients with schizophrenia; test: CogState 1-Card Learning task (visual learning), Phase 2 trial; format: in vivo, human; conditions: for CogState 1-Card Learning: Mean (SE): tobacco users meeting data integrity criteria
Description: as §1

SMILES: O=C(N[C@@H]1C2CCN(CC2)[C@H]1Cc1cccnc1)c1cc2ccccc2o1 (single isomer, unassigned) [TC-5619]
- CogState composite score, result in words ([1]; in vivo): statistically significant results of improvement
- CogState Composite score: Mean (SE) ([1]; Week 4, 1 mg daily, 1-tailed p = 0.471): 0.007 0.099); p = 0.471
- CogState Composite score: Mean (SE) ([1]; Week 8, 5 mg daily, 1-tailed p = 0.614): −0.029 (0.101); p = 0.614
- CogState Composite score: Mean (SE) ([1]; Week 12, 25 mg daily, 1-tailed p = 0.098): 0.129 0.100); p = 0.098 ^
- CogState Composite score: Mean (SEM) ([1]; Week 4, 1 mg daily, 1-tailed p = 0.838): −0.066 (0.066); p = 0.838
- CogState Composite score: Mean (SEM) ([1]; Week 8, 5 mg daily, 1-tailed p = 0.821): −0.062 .068); p = 0.821^
- CogState Composite score: Mean (SEM) ([1]; Week 12, 25 mg daily, 1-tailed p = 0.326): 0.030 0.067); p = 0.326 ^
- efficacy in preclinical models of schizophrenia [2]: effective
- water solubility [3]: very limited
- GML (Total Error) LOG: Adjusted Mean ([4]; Week 1, 1 mg daily, SE 0.01, placebo −0.02): −0.01
- GML (Total Error) LOG: Mean Difference ± SE between TC-5619 and Placebo (Placebo-TC5619) ([4]; Week 1, 1 mg daily, one-sided 90% CI (−0.03, ∞), one-sided P 0.6709): −0.01 ± 0.02
- GML (Total Error) LOG: Adjusted Mean ([4]; Week 4, 1 mg daily, SE 0.02, placebo 0.02): −0.03
- GML (Total Error) LOG: Mean Difference ± SE between TC-5619 and Placebo (Placebo-TC5619) ([4]; Week 4, 1 mg daily, one-sided 90% CI (0.02, ∞), one-sided P 0.0180): 0.05 ± 0.02
- GML (Total Error) LOG: Adjusted Mean ([4]; Week 8, 5 mg daily, SE 0.02, placebo −0.02): −0.05
- GML (Total Error) LOG: Mean Difference ± SE between TC-5619 and Placebo (Placebo-TC5619) ([4]; Week 8, 5 mg daily, one-sided 90% CI (−0.00, ∞), one-sided P 0.1308): 0.02 ± 0.02
- GML (Total Error) LOG: Adjusted Mean ([4]; Week 12, 25 mg daily, SE 0.02, placebo −0.02): −0.06
- GML (Total Error) LOG: Mean Difference ± SE between TC-5619 and Placebo (Placebo-TC5619) ([4]; Week 12, 25 mg daily, one-sided 90% CI (0.01, ∞), one-sided P 0.0405): 0.04 ± 0.02
- GMLT activity in non-users of tobacco ([4]; non-users): no activity
- GMLT primary efficacy outcome measure: result against protocol criteria [4]: met the pre-defined success criteria
- GMLT primary efficacy outcome measure: result against protocol criteria ([4]; listed as (2S,3R)—N-(2-((3-pyridinyl)methyl)-1-azabicyclo[2.2.2]oct-3-yl)benzofuran-2-carb): met the protocol criteria for a positive result
- GMLT results, patients at study sites in United States as compared to study sites in India ([4]; subgroup comparison): favorable
- GMLT results, tobacco users as compared to non-users ([4]; subgroup comparison): favorable for tobacco users as compared to non-users
- GMLT log (10) transformed: Mean (SE) ([4]; Week 4, 1 mg daily, 1-tailed p = 0.014): 0.06 (.03) p = 0.014
- GMLT log (10) transformed: Mean (SE) ([4]; Week 8, 5 mg daily, 1-tailed p = 0.086): 0.04 (0.03) p = 0.086
- GMLT log (10) transformed: Mean (SE) ([4]; Week 12, 25 mg daily, 1-tailed p = 0.002): 0.07 (0.02) p = 0.002
- GMLT log (10) transformed: Mean (SEM) ([4]; total population (tobacco users and non-users), Week 4, 1 mg daily, 1-tailed p = 0.018): 0.05 (0.02); p = 0.018
- GMLT log (10) transformed: Mean (SEM) ([4]; total population, Week 8, 5 mg daily, 1-tailed p = 0.131): 0.02 (0.02); p = 0.131
- GMLT log (10) transformed: Mean (SEM) ([4]; total population, Week 12, 25 mg daily, 1-tailed p = 0.041): 0.04 (0.02); p = 0.041
- attention (healthy volunteers; 6.7 mg administered): robust improvement in attention
- tolerability (healthy volunteers; phase 1 trials): generally well tolerated
- efficacy in preclinical models of memory [5]: had efficacy
- CogState detection (psychomotor speed), result in words ([6]; in vivo): statistically significant results of improvement
- CogState Detection: Mean (SE) ([6]; Week 4, 1 mg daily, 1-tailed p = 0.254): −0.014 (0.021); p = 0.254
- CogState Detection: Mean (SE) ([6]; Week 8, 5 mg daily, 1-tailed p = 0.491): −0.000 (0.021); p = 0.491
- CogState Detection: Mean (SE) ([6]; Week 12, 25 mg daily, 1-tailed p = 0.265): −0.013 0.021); p = 0.265 ^
- CogState Detection: Mean (SEM) ([6]; Week 4, 1 mg daily, 1-tailed p = 0.693): 0.007 (0.015); p = 0.693
- CogState Detection: Mean (SEM) ([6]; Week 8, 5 mg daily, 1-tailed p = 0.650): 0.006 (0.014) p = 0.650^
- CogState Detection: Mean (SEM) ([6]; Week 12, 25 mg daily, 1-tailed p = 0.567): 0.002 (0.015) p = 0.567^
- CogState 1-back (working memory), result in words ([7]; in vivo): statistically significant results of improvement
- CogState 1-Back: Mean (SE) ([7]; Week 4, 1 mg daily, 1-tailed p = 0.605): 0.005 (0.021); p = 0.605
- CogState 1-Back: Mean (SE) ([7]; Week 8, 5 mg daily, 1-tailed p = 0.329): −0.009 (0.021); p = 0.329
- CogState 1-Back: Mean (SE) ([7]; Week 12, 25 mg daily, 1-tailed p = 0.020): −0.042 (0.020); p = 0.020
- CogState 1-Back: Mean (SEM) ([7]; Week 4, 1 mg daily, 1-tailed p = 0.691): 0.007 (0.014); p = 0.691
- CogState 1-Back: Mean (SEM) ([7]; Week 8, 5 mg daily, 1-tailed p = 0.647): 0.005 (0.015); p = 0.647
- CogState 1-Back: Mean (SEM) ([7]; Week 12, 25 mg daily, 1-tailed p = 0.042): −0.024 (0.014); p = 0.042
- CogState 1-card learning (visual learning), result in words ([8]; in vivo): statistically significant results of improvement
- CogState 1-Card Learning: Mean (SE) ([8]; Week 4, 1 mg daily, 1-tailed p = 0.615): −0.008 (0.027); p = 0.615
- CogState 1-Card Learning: Mean (SE) ([8]; Week 8, 5 mg daily, 1-tailed p = 0.778): −0.021; 0.028); p = 0.778
- CogState 1-Card Learning: Mean (SE) ([8]; Week 12, 25 mg daily, 1-tailed p = 0.338): 0.012 (0.028); p = 0.338
